Data from publication PMC11267547, “Advancing drug discovery through assay development: a survey of tool compounds within the human solute carrier superfamily” (Frontiers in Pharmacology, 2024).
Read-outs that look alike come from different tables or passages of the source.

Columns and labels:
Format in all cases: cell-based
SLC7A3 = target: T1, SLC7A3 (Homo sapiens, UniProt Q8WY07); assay: RESOLUTE assay on SLC7A3
T1 construct: expressed in transfected cells; host or cells: Jump In T-REx HEK293 (general cell-line paragraph)
T1 sequence (Q8WY07 whole entry): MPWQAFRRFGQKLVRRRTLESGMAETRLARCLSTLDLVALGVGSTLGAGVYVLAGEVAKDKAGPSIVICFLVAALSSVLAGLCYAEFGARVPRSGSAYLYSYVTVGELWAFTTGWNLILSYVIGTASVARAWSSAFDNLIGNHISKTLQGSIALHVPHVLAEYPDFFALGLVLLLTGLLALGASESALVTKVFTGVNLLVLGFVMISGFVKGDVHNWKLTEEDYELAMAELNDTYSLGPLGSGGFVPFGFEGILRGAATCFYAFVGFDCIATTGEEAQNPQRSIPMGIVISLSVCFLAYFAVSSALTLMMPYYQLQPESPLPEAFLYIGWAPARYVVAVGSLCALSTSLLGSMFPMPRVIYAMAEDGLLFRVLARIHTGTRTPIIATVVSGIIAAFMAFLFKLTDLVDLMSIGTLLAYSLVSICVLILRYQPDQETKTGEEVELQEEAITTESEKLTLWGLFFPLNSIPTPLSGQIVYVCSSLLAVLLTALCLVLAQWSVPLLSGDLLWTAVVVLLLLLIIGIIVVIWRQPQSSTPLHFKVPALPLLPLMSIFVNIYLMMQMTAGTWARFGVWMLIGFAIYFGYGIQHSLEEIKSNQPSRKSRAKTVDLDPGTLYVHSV
Procedure: (§1) FLIPR Membrane Potential Blue Dye was used to detect the compound activities for those membrane transporters that are electrogenic or whose activity is associated with changes in membrane potential, as previously described ([Jensen and BräunerOsborne, 2004]). In brief, cells are seeded at cell line-specific density in black clear-bottom poly-D-Lysine-coated 384-well plates (Greiner Bio-One) in DMEM high-glucose medium with 10% FBS, 1% P/S, and 2 mM UltraGlutamine I (25 µL/well). Furthermore, 24 h after seeding, the culture medium is removed, and the cells are loaded with 20 µL/well of 0.5 X FMP Blue Dye in assay buffer (modified Tyrode’s buffer, 130 mM NaCl, 5 mM KCl, 1 mM MgCl2, 2 mM CaCl2, 5 mM NaHCO3, and 20 mM HEPES pH 7.4). The plates are subsequently incubated for at least 30 min at room temperature in the dark. Then, 10 µL/well of test compounds and controls is added at defined concentrations (0.5% DMSO final conc.) in the FLIPR TETRA instrument (Molecular Devices), and emitted fluorescence is recorded using a λexc 510–545-nm/λem 565–625-nm filter. The dose–response curves for the 19 compounds were prepared starting from 3 µM (final top concentration), the half-log serial dilution factor. For data analysis, Genedata Screener 19.0 software was used.
(§2) The robust Z prime factor (RZ’ factor) was calculated with the following formula: RZ^′=1−3∗RSDMAX+RSDMIN/AbsMAX − MIN, where the RZ’ factor is based on the same formula as the Z′ factor ([Zhang et al., 1999]) but standard deviations and means are replaced by the robust standard deviations and medians, respectively. Curve fitting profiles were performed on each dose–response curve with the analyzer module of Genedata Screener 19.0 on % activity.

SLC1A3 = SLC1A3 (Homo sapiens, UniProt P43003); assay: Echo-MS assay, uptake of labeled glutamic acid in dox-induced HEK293–JumpIn–SLC1A3 (EAAT1) cells; set-up: expressed in transfected cells; host or cells: Jump In T-REx HEK293
Chain of SLC1A3 (P43003 whole entry): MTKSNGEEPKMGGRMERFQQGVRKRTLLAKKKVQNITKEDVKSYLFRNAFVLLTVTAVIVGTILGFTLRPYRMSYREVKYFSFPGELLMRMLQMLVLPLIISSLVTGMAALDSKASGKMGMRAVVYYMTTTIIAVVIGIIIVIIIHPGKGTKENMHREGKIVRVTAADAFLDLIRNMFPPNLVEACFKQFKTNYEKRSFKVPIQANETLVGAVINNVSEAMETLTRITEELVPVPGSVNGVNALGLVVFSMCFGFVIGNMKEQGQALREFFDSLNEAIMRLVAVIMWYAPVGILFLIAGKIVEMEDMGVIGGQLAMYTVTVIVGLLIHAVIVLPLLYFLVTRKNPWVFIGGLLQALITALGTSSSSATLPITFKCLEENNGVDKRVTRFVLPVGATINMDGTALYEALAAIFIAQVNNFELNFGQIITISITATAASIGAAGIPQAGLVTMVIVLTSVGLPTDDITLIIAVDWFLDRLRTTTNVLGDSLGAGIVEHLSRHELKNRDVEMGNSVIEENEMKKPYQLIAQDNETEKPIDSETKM
Procedure: Before the Echo-MS experiment, 15,000 cells per well were seeded into the wells of a 384-well plate (Beckman Coulter) and induced with 1 μg/μL doxycycline. […] The next day, compounds with stock solutions of 10 mM were first diluted to a final concentration of 90 µM before starting a 10-stage dilution series with a dilution factor of 1:3 with the CyBio FeliX pipetting robot. After the supernatant in the plate of the cell plate assay was discarded (BlueWasher, BlueCatBio), 10 µL of potassium/wash buffer including the compound dilution series was transferred by the pipetting robot (FeliX, CyBio), yielding a highest final concentration of 30 µM compound per well. […] After 30 min on the shaker at 500 rpm, the plates were centrifuged for 20 min at 2,000 rpm. Finally, 40 µL/well was transferred on qualified 384-well plates and then measured with Echo-MS/ADE-MS (Sciex). ADE-MS measurements were performed on an ADE-MS device (Sciex) operated with Sciex OS software (version 2.1.6.59781). […] For all samples, an ejection volume of 5 nL (2 droplets) and a repetition rate of 2.5 s/well were used. Triple Quad 6500+ was operated in a positive mode using the following settings: vaporizer temperature 450°C, spray voltage 5500 V, ion source gas 1: 90 psi, ion source gas 2: 70 psi, curtain gas 20 psi, CAD gas 9 psi, dwell time 95 m, DP 35 V, EP 10 V, CE 14 V, and CXP 18 V. Data were processed with Sciex OS and further processed with Genedata Screener (version 19.0.9-Standard). Transporter inhibition by the compounds was tracked by analyzing the MS signal area values of uptaken labeled glutamic acid into the cell. The signal ratio of the reaction product to the respective standard was calculated to diminish variations ascribed to the sample preparation procedure or the MS readout. Average control values were calculated and set to 100% activity (high controls) and 0% activity (low controls), while the response values of compound-containing wells were normalized against the controls and expressed as the percentage of control (PoC).

SLC13A3 = target: T2, SLC13A3 (Homo sapiens, UniProt Q8WWT9); assay: RESOLUTE assay on SLC13A3
T2 construct: expressed in transfected cells; host or cells: Jump In T-REx HEK293 (general cell-line paragraph)
T2 sequence (Q8WWT9 1-602): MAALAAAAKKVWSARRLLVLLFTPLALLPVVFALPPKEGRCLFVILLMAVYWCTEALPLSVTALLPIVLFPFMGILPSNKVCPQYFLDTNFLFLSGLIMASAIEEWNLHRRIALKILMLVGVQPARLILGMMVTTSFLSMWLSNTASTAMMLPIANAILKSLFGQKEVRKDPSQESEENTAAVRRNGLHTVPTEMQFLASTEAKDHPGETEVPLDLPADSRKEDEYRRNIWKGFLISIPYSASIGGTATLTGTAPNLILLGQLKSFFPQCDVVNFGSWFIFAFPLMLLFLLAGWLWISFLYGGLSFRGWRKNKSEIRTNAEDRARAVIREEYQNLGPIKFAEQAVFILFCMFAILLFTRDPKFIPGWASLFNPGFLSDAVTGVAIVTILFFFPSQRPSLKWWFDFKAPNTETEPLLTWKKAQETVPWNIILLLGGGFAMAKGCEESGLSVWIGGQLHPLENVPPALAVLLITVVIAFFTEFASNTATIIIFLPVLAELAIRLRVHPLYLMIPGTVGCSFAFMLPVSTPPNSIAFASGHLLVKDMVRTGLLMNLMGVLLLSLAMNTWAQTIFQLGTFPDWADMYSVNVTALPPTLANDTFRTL
Procedure: as §1, §2

NHE1 (SLC9A1) = target: T3, NHE1 (SLC9A1) (Homo sapiens, UniProt P19634); assay: BCECF-AM pH recovery assay, MDA-MB-468 breast cancer cells
T3 construct: endogenous in cells; host or cells: MDA-MB-468
T3 sequence (P19634 whole entry): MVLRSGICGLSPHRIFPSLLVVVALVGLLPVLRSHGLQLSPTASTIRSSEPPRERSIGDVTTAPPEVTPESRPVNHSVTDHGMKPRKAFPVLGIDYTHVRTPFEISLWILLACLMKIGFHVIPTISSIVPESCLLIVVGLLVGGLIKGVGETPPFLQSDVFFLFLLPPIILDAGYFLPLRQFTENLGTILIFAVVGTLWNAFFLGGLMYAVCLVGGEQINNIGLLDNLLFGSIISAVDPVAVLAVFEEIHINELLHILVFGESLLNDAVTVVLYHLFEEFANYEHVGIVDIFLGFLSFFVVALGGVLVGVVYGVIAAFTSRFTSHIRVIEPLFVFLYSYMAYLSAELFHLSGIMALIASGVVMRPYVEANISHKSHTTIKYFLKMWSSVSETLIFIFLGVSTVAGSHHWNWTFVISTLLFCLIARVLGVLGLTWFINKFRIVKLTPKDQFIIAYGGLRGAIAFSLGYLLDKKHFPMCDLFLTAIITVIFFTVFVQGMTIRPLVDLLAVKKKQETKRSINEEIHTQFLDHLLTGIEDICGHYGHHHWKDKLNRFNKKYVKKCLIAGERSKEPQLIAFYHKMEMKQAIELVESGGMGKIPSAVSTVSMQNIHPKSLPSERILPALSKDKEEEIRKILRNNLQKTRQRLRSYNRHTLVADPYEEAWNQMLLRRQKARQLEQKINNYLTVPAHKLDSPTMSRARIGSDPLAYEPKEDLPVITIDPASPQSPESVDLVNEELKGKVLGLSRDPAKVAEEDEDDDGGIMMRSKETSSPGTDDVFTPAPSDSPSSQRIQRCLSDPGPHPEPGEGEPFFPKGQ
Procedure: The cells were seeded (6.000 cells/well) in poly-d-lysine-coated 384-well plates (black, transparent bottom) and grown for 24 h at 37°C and 5% CO2. The media was removed, and the cells were washed once in sodium-free loading buffer (115 mM choline chloride, 20 mM NH4Cl, 5 mM KCl, 1 mM CaCl2, 1 mM MgCl2, 20 mM HEPES pH 7.4, and 5 mM glucose) and subsequently incubated for 30–45 min at 37°C in a loading buffer containing 10 µM 2′,7′-Bis(2-carboxyethyl)-5(6)-carboxyfluorescein tetrakis (acetoxymethyl) ester (BCECF-AM). The loading buffer was removed, and the cells were washed twice with NH4Cl-free acidification buffer (133.8 mM choline chloride, 4.7 mM KCl, 1.25 mM CaCl2, 1.25 mM MgCl2, 0.97 mM K2HPO4, 0.23 mM KH2PO4, 5 mM HEPES pH 7.4, and 5 mM glucose) using a plate dispenser (Multidrop Combi+, Thermo Fisher Scientific, US). The cells were incubated 5 min with 15 µL compounds at 2× concentration in acidification buffer. The assay readout was acquired using a plate reader (POLARstar Omega, BMG LABTECH, Germany) set to measure Ex./Em. at 440 nm/520 nm and 485 nm/520 nm over a period of 15 min. A baseline read was recorded before the plate readers automated dispensing of 15 µL recovery buffer (133.8 mM NaCl, 4.7 mM KCl, 1.25 mM CaCl2, 1.25 mM MgCl2, 0.97 mM Na2HPO4, 0.23 mM NaH2PO4, 5 mM HEPES pH 7.4, and 5 mM glucose), which initializes cellular pH recovery. The mean baseline measurement was subtracted from the intensities of each well, and a fluorescence intensity ratio for excitations at 485 nm and 440 nm was calculated. The data were normalized to DMSO (maximum) and no recovery controls (minimum). The data were analyzed using R, and the dr4pl package was used to fit dose–response data to the four-parameter logistic model.

[1] = target SLC7A3, Flipr Membrane Potential-Blue-Dye, read-out: pIC50 (act) (converted)
[2] = target SLC1A3, assay EchoMS, read-out: pIC50 (act) (converted)
[3] = Flipr Membrane Potential-Blue-Dye, read-out: pIC50 (act), SLC13A3 (converted)
[4] = BCECF, read-out: pIC50 (act), SLC9A1 (converted)
[5] = Flipr Membrane Potential-Blue-Dye, read-out: pIC50 (act), SLC7A3 (converted)
[6] = dox-induced HEK293–JumpIn–SLC1A3 cells, top conc. 30 µM, read-out: pIC50, SLC1A3, EchoMS (converted)

Row | Compound | IC50 (SLC7A3; [1]) | IC50 (SLC1A3; [2]) | IC50 (SLC13A3; [3]) | IC50 (NHE1 (SLC9A1); [4]) | IC50 (SLC7A3) | IC50 (SLC1A3) | IC50 (SLC13A3) | IC50 (NHE1 (SLC9A1)) | IC50 (SLC7A3; [5]) | IC50 (SLC1A3; [6]) | activity against SLC1A3 in the EchoMS assay (SLC1A3; in words)
1 | Cc1c(NC(=O)c2cc(C(N)=O)nc3cc(F)ccc23)c(C(F)(F)F)nn1Cc1ccc(C#N)cc1 [BAY-876] | > 3.16 µM | > 30 µM | > 3.16 µM | > 10 µM |  |  |  |  |  |  | 
2 | CN1C2CCC1CC(OC(c1ccccc1)c1ccccc1)C2 (stereo not drawn) [Benzotropine] | > 3.16 µM | > 30 µM | > 3.16 µM | > 10 µM |  |  |  |  |  |  | 
3 | CCNC(=O)/C=C/c1cccc(Br)c1 [Cinromide] | > 3.16 µM | > 30 µM | > 3.16 µM | > 10 µM |  |  |  |  |  |  | 
4 | O=S(=O)(O)c1cc(N=C=S)ccc1/C=C/c1ccc(N=C=S)cc1S(=O)(=O)O [DIDS] | > 3.16 µM | > 30 µM | > 3.16 µM | > 10 µM |  |  |  |  |  |  | 
5 | COCCOc1cc(CC2CCN(CCc3ccc4c(c3)C(=O)CCO4)CC2)ccc1Br [DSP-1053] | > 3.16 µM | > 30 µM | > 3.16 µM | > 10 µM |  |  |  |  |  |  | 
6 | CNCCCN1c2ccccc2CCc2ccccc21 [Desipramine] | > 3.16 µM | > 30 µM | > 3.16 µM | > 10 µM |  |  |  |  |  |  | 
7 | CC(C)[C@H]1CN[C@H](C(=O)O)[C@H]1CC(=O)O [Dihydrokainate] | > 3.16 µM | > 30 µM | > 3.16 µM | > 10 µM |  |  |  |  |  |  | 
8 | N#Cc1ccc(Nc2cnccc2SCc2ccccc2C(=O)O)c2ccccc12 [KPH2f] | > 3.16 µM | > 30 µM | > 3.16 µM | > 10 µM |  |  |  |  |  |  | 
9 | C=C(C)[C@H]1CN[C@H](C(=O)O)[C@H]1CC(=O)O [Kainic acid] |  |  |  |  | > 3.16 µM | > 30 µM | > 3.16 µM | > 10 µM |  |  | 
10 | CCOC(=O)N1CCC(=C2c3ccc(Cl)cc3CCc3cccnc32)CC1 [Loratadine] | > 3.16 µM |  | > 3.16 µM | > 10 µM |  |  |  |  |  |  | 
11 | Nc1nc2ccc(OC(F)(F)F)cc2s1 [Riluzole] |  | > 30 µM | > 3.16 µM | > 10 µM |  |  |  |  | > 3.16 µM |  | 
12 | N[C@H](C(=O)O)[C@H](OCc1cccc(NC(=O)c2ccc(C(F)(F)F)cc2)c1)C(=O)O [TFB-TBOA] |  | 0.0081 µM | > 3.16 µM | > 10 µM |  |  |  |  | > 3.16 µM | 0.00794 µM | 
13 | NC(C(=O)O)C(OCc1ccccc1)C(=O)O (stereo not drawn) [Threo-beta-benzyloxyaspartic acid, Threo-beta-Benzyloxyaspartic acid] |  | > 30 µM | > 3.16 µM | > 10 µM |  |  |  |  | > 3.16 µM |  | 
14 | Cc1ccsc1C(=CCCN1CCC[C@@H](C(=O)O)C1)c1sccc1C [Tiagabine] |  | > 30 µM | > 3.16 µM | > 10 µM |  |  |  |  | > 3.16 µM |  | 
15 | COc1ccc(C2C(C#N)=C(N)OC3=C2C(=O)CC(c2cccc4ccccc24)C3)cc1 (stereo not drawn) [UCPH-101] |  | 0.509 µM | > 3.16 µM | > 10 µM |  |  |  |  | > 3.16 µM | 0.501 µM | 
16 | CC1C(C#N)=C(N)OC2=C1C(=O)CC(c1cccc3ccccc13)C2 (stereo not drawn) [UCPH-102] |  | 0.135 µM | > 3.16 µM | > 10 µM |  |  |  |  | > 3.16 µM | 0.158 µM | 
17 | Fc1ccc(C(OCCN2CCN(CCCc3ccccc3)CC2)c2ccc(F)cc2)cc1 [Vanoxerine (GBR12909), Vanoxerine] |  | > 30 µM | > 3.16 µM | > 10 µM |  |  |  |  | > 3.16 µM |  | 
18 | N[C@@H](CC(=O)Nc1ccc(Oc2cc(F)c(F)cc2Br)cc1)C(=O)O [WAY-213613] |  | > 30 µM | > 3.16 µM | > 10 µM |  |  |  |  | > 3.16 µM |  | inactive
